Laboratory results reported in paper PMC5618334, “Hydrocarbon constrained peptides – understanding preorganisation and binding affinity” (Chemical Science, 2016).
Where a SMILES comes first, the peptide text is derived from it. [ ]: non-standard residue; d: D form. Nle = CCCC[C@H](N)C(=O)O

Tests used:
Type in all cases: binding
Mcl-1/FITC-NOXA-B = target: T1, Mcl-1/FITC-NOXA-B (Homo sapiens, UniProt Q07820); experiment: Fluorescence anisotropy competition assay, inhibition of Mcl-1/FITC-NOXA-B interaction
T1 construct: His-SUMO (N, cleaved yes); made in house; host or cells: E. coli Rosetta 2
Protocol: (§1) To profile the binding behaviour of the constrained peptides we tested them in both competition displacement assays and direct binding assays. […] Of particular interest was the potential for the introduction of a constraint to have differential effects on protein specificity/selectivity. […] We next tested the constrained peptides in inhibition assays (Fig. 3a and b and Table 2). […]
(§2) constructs were over-expressed in the E. coli strain Rosetta 2. Cells were resuspended in 50mM TRIS pH 8.0, 500mM NaCl, 15mM Imidazole and lysed by sonication. The clarified lysate was applied to a 5ml HisTrap column equilibrated with 50mM TRIS pH 8.0, 500mM NaCl, 15mM Imidazole. The HisTrap was then washed with 10 CV of 50mM TRIS pH 8.0, 500mM NaCl, 15mM Imidazole followed by 10 CV 50mM TRIS pH 8.0, 500mM NaCl, 25mM Imidazole. The fusion proteins were eluted in 50mM TRIS pH 8.0, 500mM NaCl, 300mM Imidazole. TheHis-SUMO tag was removed in overnight in dialysis into 50mM TRIS pH 8.0, 250mM NaCl in the presence of Smt3 protease, Ulp1, overnight at 4°C. Uncleaved material and His-SUMO were removed by reapplication of the sample to a HisTrap in 50mM TRIS pH 8.0, 250mM NaCl and the flow through containing Mcl- […]
(§3) The proteins were then filtered before further purification on a Superdex 75 (GE […]
(§4) proteins were concentrated and stored at -80°C.
(§5) The assays were performed as detailed in 10, 11.
(§6) The buffers used for fluorescence anisotropy were either phosphate buffer (40 mM sodium phosphate, 200 mM sodium chloride, 0.02 mg ml-1 bovine serum albumin, pH 7.50) or Tris buffer (50 mM Tris, 140 mM sodium chloride, pH 7.50). Phosphate buffer was used for all competition assays […]
(§7) Assays were run in 96 or 384 well Optiplates and were scanned using a Perkin Elmer EnVisionTM 2103 MultiLabel plate reader. Fluorescein labelled peptides used an excitation and emission wavelength of 480 (30) nm and 535 (40) nm respectively (dichroic mirror 505 nm) whilst BODIPY labelled peptides used an excitation and emission wavelength of 531 (25) nm and 595 (60) nm respectively (dichroic mirror 555 nm), […]
(§8) Plates were read after 1 h […]
(§9) respectively. Plates were read after 1 h. […]
(§10) Processing of fluorescence anisotropy data
(§11) Fluorescence anisotropy data was processed using Microsoft Excel to calculate intensity, anisotropy […]
(§12) b (λ(rmax − r) + r − rmin) r = anisotropy, I = total intensity, P = perpendicular intensity, S = parallel intensity, Lb = fraction ligand bound, λ = Ibound/Iunbound , G = 1= instrumental factor. […]
(§13) the calculation of IC50 and EC50) or to the Kd model for the extraction of Kd values:
(§14) Where for the logisitic model; y = r = anisotropy, xo = mid-point of the curve between the rmax and rmin […]
(§15) For the Kd model; y = Lb*[FL], K = Kd, [FL] = Concentration of fluorescent ligand.

Bcl-xL = target: T2, Bcl-xL (Homo sapiens, UniProt Q07817, DEL26-81); experiment: Surface plasmon resonance (SPR), peptides flowed over immobilised His-SUMO Bcl-xL; details: SPR Biacore 3000, His-SUMO Bcl-xL on Ni-NTA chip, PBS with 0.01 mg/mL BSA, 0.1% Tween 20, 1:1 model, average of at least 3 data sets; for Kd: read-out: Bcl-xL K d; for koff: read-out: Bcl-xL k off; for kon: read-out: Bcl-xL k on
T2 construct: pET28a His-SUMO Bcl-xL (1-198, missing 26-81); made in house; host or cells: E. coli Rosetta 2
Protocol: To investigate how the hydrocarbon constraint affects binding kinetics, we established a surface plasmon resonance (SPR) based assay. […] BID-WT and BID-MM were then flowed over the immobilised protein. […] These experiments were repeated for the BIM series of peptides.
SPR of BIM series of peptides
The binding kinetics and affinities were analysed by SPR (Biacore 3000). […]
immobilised on an Ni-NTA chip non-covalently in PBS with 0.01mg/ML BSA and 0.1% Tween 20 […]
(Running buffer). […] For the […]
the peptides were diluted into running buffer. Experiments were run at 40ul/min in running buffer.
20 minute dissociation period. The binding kinetic parameters were evaluated with BIA-Evaluation software (BIAcore 3000) in which all data sets were fit to a simple 1:1 (Langmuir) binding model. […]
(1 picture or pasted object on this page, not shown here)

Bcl-xL/BODIPY-BAK = target: T3, Bcl-xL/BODIPY-BAK (Homo sapiens, UniProt Q07817, DEL26-81); experiment: Fluorescence anisotropy competition assay, inhibition of Bcl-xL/BODIPY-BAK interaction
T3 construct: pET28a His-SUMO Bcl-xL (1-198, missing 26-81); His-SUMO (N, cleaved yes); made in house; host or cells: E. coli Rosetta 2
Protocol: as §1, §2, §3, §4, §5, §6, §7, §8, §9, §10, §11, §12, §13, §14, §15

T1 sequence (Q07820 172-327): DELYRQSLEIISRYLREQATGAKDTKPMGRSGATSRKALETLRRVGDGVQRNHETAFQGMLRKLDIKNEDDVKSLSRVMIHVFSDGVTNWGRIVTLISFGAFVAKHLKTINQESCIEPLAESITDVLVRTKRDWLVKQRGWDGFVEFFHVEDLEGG
T2 sequence (Q07817 with tags, fused parts or gaps DEL26-81): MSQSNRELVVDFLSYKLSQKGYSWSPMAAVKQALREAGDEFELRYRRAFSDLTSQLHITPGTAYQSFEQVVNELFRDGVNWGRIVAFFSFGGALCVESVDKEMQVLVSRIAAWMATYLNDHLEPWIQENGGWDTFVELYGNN
T3 sequence (Q07817 with tags, fused parts or gaps DEL26-81): as above

Structure (SMILES) | IC50 (Mcl-1/FITC-NOXA-B) | Kd (Bcl-xL) | koff (Bcl-xL) | kon (Bcl-xL) | IC50 (Bcl-xL/BODIPY-BAK)
CCCC[C@H](NC(=O)[C@]1(C)CCCC=CCCC[C@](C)(NC(=O)[C@H](C)NC(=O)[C@H](CC(C)C)NC(=O)[C@H](Cc2c[nH]cn2)NC(=O)[C@H](CCCNC(=N)N)NC(=O)[C@H](C)NC(=O)[C@@H](NC(=O)[C@H](CC(N)=O)NC(=O)[C@H](CCCNC(=N)N)NC(=O)[C@@H](NC(=O)[C@@H](NC(=O)[C@H](CC(=O)O)NC(=O)[C@H](CCC(=O)O)NC(C)=O)[C@@H](C)CC)[C@@H](C)CC)[C@@H](C)CC)C(=O)N[C@@H](C(C)C)C(=O)NCC(=O)N[C@@H](CC(=O)O)C(=O)N1)C(=O)N[C@@H](CC(=O)O)C(=O)N[C@@H](CCCNC(=N)N)C(=O)N[C@@H](CO)C(=O)N[C@H](C(=O)N[C@@H](Cc1c[nH]c2ccccc12)C(N)=O)[C@@H](C)CC [BID-DM] | 800 ± 70 nM | 178 ± 52 nM | 0.003 s⁻¹ | 17500 M⁻¹ s⁻¹ | 1140 ± 40 nM
CCCC[C@H](NC(=O)[C@@H]1CCC/C=C\CCC[C@H](NC(=O)[C@H](C)NC(=O)[C@H](CC(C)C)NC(=O)[C@H](Cc2c[nH]cn2)NC(=O)[C@H](CCCNC(=N)N)NC(=O)[C@H](C)NC(=O)[C@@H](NC(=O)[C@H](CC(N)=O)NC(=O)[C@H](CCCNC(=N)N)NC(=O)[C@@H](NC(=O)[C@@H](NC(=O)[C@H](CC(=O)O)NC(=O)[C@H](CCC(=O)O)NC(C)=O)[C@@H](C)CC)[C@@H](C)CC)[C@@H](C)CC)C(=O)N[C@@H](C(C)C)C(=O)NCC(=O)N[C@@H](CC(=O)O)C(=O)N1)C(=O)N[C@@H](CC(=O)O)C(=O)N[C@@H](CCCNC(=N)N)C(=O)N[C@@H](CO)C(=O)N[C@H](C(=O)N[C@@H](Cc1c[nH]c2ccccc12)C(N)=O)[C@@H](C)CC [BID-MM] | 1600 ± 120 nM | 107 ± 29 nM | 0.003 s⁻¹ | 31000 M⁻¹ s⁻¹ | 620 ± 20 nM
CCCC[C@H](NC(=O)[C@H](CO)NC(=O)[C@H](CC(=O)O)NC(=O)CNC(=O)[C@@H](NC(=O)[C@H](CCC(N)=O)NC(=O)[C@H](C)NC(=O)[C@H](CC(C)C)NC(=O)[C@H](Cc1c[nH]cn1)NC(=O)[C@H](CCCNC(=N)N)NC(=O)[C@H](C)NC(=O)[C@@H](NC(=O)[C@H](CC(N)=O)NC(=O)[C@H](CCCNC(=N)N)NC(=O)[C@@H](NC(=O)[C@@H](NC(=O)[C@H](CC(=O)O)NC(=O)[C@H](CCC(=O)O)NC(C)=O)[C@@H](C)CC)[C@@H](C)CC)[C@@H](C)CC)C(C)C)C(=O)N[C@@H](CC(=O)O)C(=O)N[C@@H](CCCNC(=N)N)C(=O)N[C@@H](CO)C(=O)N[C@H](C(=O)N[C@@H](Cc1c[nH]c2ccccc12)C(N)=O)[C@@H](C)CC [BID-WT, reference compound] (Ac-EDIIRNIARHLAQVGDS[Nle]DRSIW-NH2) | 390 ± 80 nM | 57 ± 16 nM | 0.01 s⁻¹ | 180000 M⁻¹ s⁻¹ | 1440 ± 50 nM
